According to patent US10376520B2, “Methods for the treatment of cardiovascular disorders” (Galapagos NV, priority 2015, dated 2019):

Tested on: RA patients
Test: LDL determination, Study 2 (RA patients, monotherapy)
Format: in vivo, human
Description: Randomized, double-blind, placebo-controlled, multicenter, phase IIb dose finding study of Compound 1 (dosed as a [Compound 1:HCl:3H2O]) administered for 24 weeks as monotherapy to subjects with moderately to severely active rheumatoid arthritis who have an inadequate response to methotrexate alone
Double-blind, placebo-controlled, monotherapy study in subjects with moderately to severely active RA who have an inadequate response to methotrexate (MTX) (oral or parenteral).
280 subjects randomized to one of 3 doses of Compound 1 (dosed as a [Compound 1:HCl:3H2O]) or to placebo, given once daily (q.d.).
Twelve weeks of treatment with Compound 1 (dosed as a [Compound 1:HCl:3H2O]) at 50 mg, 100 mg, or 200 mg q.d.; or placebo. At Week 12, all subjects on placebo and the subjects on the 50 mg dose who have not achieved 20% improvement in swollen joint count (SJC66) and tender joint count (TJC68) will be assigned to 100 mg q.d. in a blinded fashion and will continue treatment until Week 24. Subjects in the other groups will maintain their randomized treatment until Week 24.
The determination of [LDL]-cholesterol is made using an automated method taking advantage of the selective micellary solubilization of [LDL]-cholesterol by a nonionic detergent and the interaction of a sugar compound and lipoproteins (VLDL and chylomicrons).
When a detergent is included in the enzymatic method for cholesterol determination (cholesterol esterase, cholesterol oxidase coupling reaction), the relative reactivities of cholesterol in the lipoprotein fractions increase in this order: [HDL]<chylomicrons <VLDL <[LDL]. In the presence of Mg^2+, a sugar compound markedly reduces the enzymatic reaction of the cholesterol measurement in VLDL and chylomicrons. The combination of a sugar compound with detergent enables the selective determination of [LDL]-cholesterol in serum. (Friedewald et al., 1972; Rifai et al., 1992)
Homogeneous enzymatic colorimetric assay.
In the presence of peroxidase, the hydrogen peroxide generated reacts with 4-aminoantipyrine and Sodium N-(2-hydroxy-3-sulfopropyl)-3,5-dimethoxyaniline (HSDA) to form a purple-blue dye.
The color intensity of this dye is directly proportional to the cholesterol concentration and is measured photometrically.
Human serum and plasma samples [LDL] determination was done on a Roche/Hitachi Cobas c 701/702 system which automatically calculate the analyte concentration of each sample. Samples containing precipitates are centrifuged before performing the assay.

[1] = Study 2 12 weeks results, 50 mg q.d., week 12
[2] = Study 2 12 weeks results, 100 mg q.d., week 1
[3] = Study 2 12 weeks results, 100 mg q.d., week 2
[4] = Study 2 12 weeks results, 100 mg q.d., week 4
[5] = Study 2 12 weeks results, 100 mg q.d., week 8
[6] = Study 2 12 weeks results, 100 mg q.d., week 12
[7] = Study 2 12 weeks results, 200 mg q.d., week 1
[8] = Study 2 12 weeks results, 200 mg q.d., week 2
[9] = Study 2 12 weeks results, 200 mg q.d., week 4
[10] = Study 2 12 weeks results, 200 mg q.d., week 8
[11] = Study 2 12 weeks results, 200 mg q.d., week 12
[12] = Study 2 24 weeks results, 50 mg q.d. non responders switching to 100 mg q.d. at week 12, week 1
[13] = Study 2 24 weeks results, 50 mg q.d. non responders switching to 100 mg q.d. at week 12, week 2
[14] = Study 2 24 weeks results, 50 mg q.d. non responders switching to 100 mg q.d. at week 12, week 4
[15] = Study 2 24 weeks results, 50 mg q.d. non responders switching to 100 mg q.d. at week 12, week 8
[16] = Study 2 24 weeks results, 50 mg q.d. non responders switching to 100 mg q.d. at week 12, week 12
[17] = Study 2 24 weeks results, 50 mg q.d. non responders switching to 100 mg q.d. at week 12, week 16
[18] = Study 2 24 weeks results, 50 mg q.d. non responders switching to 100 mg q.d. at week 12, week 20
[19] = Study 2 24 weeks results, 50 mg q.d. non responders switching to 100 mg q.d. at week 12, week 24
[20] = Study 2 24 weeks results, 50 mg q.d. responders, week 1
[21] = Study 2 24 weeks results, 50 mg q.d. responders, week 2
[22] = Study 2 24 weeks results, 50 mg q.d. responders, week 4
[23] = Study 2 24 weeks results, 50 mg q.d. responders, week 8
[24] = Study 2 24 weeks results, 50 mg q.d. responders, week 12
[25] = Study 2 24 weeks results, 50 mg q.d. responders, week 16
[26] = Study 2 24 weeks results, 50 mg q.d. responders, week 20
[27] = Study 2 24 weeks results, 50 mg q.d. responders, week 24
[28] = Study 2 24 weeks results, 100 mg q.d., week 1
[29] = Study 2 24 weeks results, 100 mg q.d., week 2
[30] = Study 2 24 weeks results, 100 mg q.d., week 4
[31] = Study 2 24 weeks results, 100 mg q.d., week 8
[32] = Study 2 24 weeks results, 100 mg q.d., week 12
[33] = Study 2 24 weeks results, 100 mg q.d., week 16
[34] = Study 2 24 weeks results, 100 mg q.d., week 20
[35] = Study 2 24 weeks results, 100 mg q.d., week 24
[36] = Study 2 24 weeks results, 200 mg q.d., week 1
[37] = Study 2 24 weeks results, 200 mg q.d., week 2
[38] = Study 2 24 weeks results, 200 mg q.d., week 4
[39] = Study 2 24 weeks results, 200 mg q.d., week 8
[40] = Study 2 24 weeks results, 200 mg q.d., week 12
[41] = Study 2 24 weeks results, 200 mg q.d., week 16
[42] = Study 2 24 weeks results, 200 mg q.d., week 20
[43] = Study 2 24 weeks results, 200 mg q.d., week 24
[44] = Study 2 24 weeks results, placebo switching to 100 mg q.d. at week 12, week 16
[45] = Study 2 24 weeks results, placebo switching to 100 mg q.d. at week 12, week 20
[46] = Study 2 24 weeks results, placebo switching to 100 mg q.d. at week 12, week 24
[47] = placebo switching to 100 mg q.d. at week 12, week 20
[48] = placebo switching to 100 mg q.d. at week 12, week 24

**Q.** Which results are given for O=C(Nc1nc2cccc(-c3ccc(CN4CCS(=O)(=O)CC4)cc3)n2n1)C1CC1 [Compound 1, cyclopropanecarboxylic acid {5-[4-(1,1-dioxo-thiomorpholin-4-ylmethyl)-phenyl]-[1,2,4]triazolo[1,5-a]pyridin-2yl}-amide]?
**A.** [LDL] Mean CFB [1]: 0.090 mmol/L; [LDL] Median CFB [1]: 0.040 mmol/L; [LDL] Mean CFB [2]: 0.116 mmol/L; [LDL] Median CFB [2]: 0.070 mmol/L; [LDL] Mean CFB [3]: 0.105 mmol/L; [LDL] Median CFB [3]: -0.050 mmol/L; [LDL] Mean CFB [4]: 0.195 mmol/L; [LDL] Median CFB [4]: 0.140 mmol/L; [LDL] Mean CFB [5]: 0.162 mmol/L; [LDL] Median CFB [5]: 0.140 mmol/L; [LDL] Mean CFB [6]: 0.278 mmol/L; [LDL] Median CFB [6]: 0.180 mmol/L; [LDL] Mean CFB [7]: 0.209 mmol/L; [LDL] Median CFB [7]: 0.180 mmol/L; [LDL] Mean CFB [8]: 0.192 mmol/L; [LDL] Median CFB [8]: 0.130 mmol/L; [LDL] Mean CFB [9]: 0.216 mmol/L; [LDL] Median CFB [9]: 0.290 mmol/L; [LDL] Mean CFB [10]: 0.212 mmol/L; [LDL] Median CFB [10]: 0.230 mmol/L; [LDL] Mean CFB [11]: 0.347 mmol/L; [LDL] Median CFB [11]: 0.315 mmol/L; [LDL] Mean CFB [12]: 0.08 mmol/L; [LDL] Median CFB [12]: 0.07 mmol/L; [LDL] Mean CFB [13]: 0.00 mmol/L; [LDL] Median CFB [13]: -0.02 mmol/L; [LDL] Mean CFB [14]: 0.17 mmol/L; [LDL] Median CFB [14]: 0.05 mmol/L; [LDL] Mean CFB [15]: 0.10 mmol/L; [LDL] Median CFB [15]: 0.10 mmol/L; [LDL] Mean CFB [16]: 0.11 mmol/L; [LDL] Median CFB [16]: 0.09 mmol/L; [LDL] Mean CFB [17]: 0.22 mmol/L; [LDL] Median CFB [17]: 0.20 mmol/L; [LDL] Mean CFB [18]: 0.03 mmol/L; [LDL] Median CFB [18]: -0.04 mmol/L; [LDL] Mean CFB [19]: 0.14 mmol/L; [LDL] Median CFB [19]: 0.15 mmol/L; [LDL] Mean CFB [20]: -0.01 mmol/L; [LDL] Median CFB [20]: -0.01 mmol/L; [LDL] Mean CFB [21]: -0.07 mmol/L; [LDL] Median CFB [21]: -0.06 mmol/L; [LDL] Mean CFB [22]: 0.01 mmol/L; [LDL] Median CFB [22]: -0.05 mmol/L; [LDL] Mean CFB [23]: 0.16 mmol/L; [LDL] Median CFB [23]: 0.14 mmol/L; [LDL] Mean CFB [24]: 0.09 mmol/L; [LDL] Median CFB [24]: 0.03 mmol/L; [LDL] Mean CFB [25]: 0.18 mmol/L; [LDL] Median CFB [25]: 0.16 mmol/L; [LDL] Mean CFB [26]: 0.00 mmol/L; [LDL] Median CFB [26]: 0.12 mmol/L; [LDL] Mean CFB [27]: 0.00 mmol/L; [LDL] Median CFB [27]: -0.01 mmol/L; [LDL] Mean CFB [28]: 0.12 mmol/L; [LDL] Median CFB [28]: 0.07 mmol/L; [LDL] Mean CFB [29]: 0.10 mmol/L; [LDL] Median CFB [29]: -0.05 mmol/L; [LDL] Mean CFB [30]: 0.19 mmol/L; [LDL] Median CFB [30]: 0.14 mmol/L; [LDL] Mean CFB [31]: 0.16 mmol/L; [LDL] Median CFB [31]: 0.14 mmol/L; [LDL] Mean CFB [32]: 0.28 mmol/L; [LDL] Median CFB [32]: 0.18 mmol/L; [LDL] Mean CFB [33]: 0.28 mmol/L; [LDL] Median CFB [33]: 0.20 mmol/L; [LDL] Mean CFB [34]: 0.25 mmol/L; [LDL] Median CFB [34]: 0.23 mmol/L; [LDL] Mean CFB [35]: 0.31 mmol/L; [LDL] Median CFB [35]: 0.31 mmol/L; [LDL] Mean CFB [36]: 0.21 mmol/L; [LDL] Median CFB [36]: 0.18 mmol/L; [LDL] Mean CFB [37]: 0.19 mmol/L; [LDL] Median CFB [37]: 0.13 mmol/L; [LDL] Mean CFB [38]: 0.22 mmol/L; [LDL] Median CFB [38]: 0.29 mmol/L; [LDL] Mean CFB [39]: 0.21 mmol/L; [LDL] Median CFB [39]: 0.23 mmol/L; [LDL] Mean CFB [40]: 0.35 mmol/L; [LDL] Median CFB [40]: 0.32 mmol/L; [LDL] Mean CFB [41]: 0.30 mmol/L; [LDL] Median CFB [41]: 0.23 mmol/L; [LDL] Mean CFB [42]: 0.29 mmol/L; [LDL] Median CFB [42]: 0.25 mmol/L; [LDL] Mean CFB [43]: 0.38 mmol/L; [LDL] Median CFB [43]: 0.34 mmol/L; [LDL] Mean CFB [44]: 0.07 mmol/L; [LDL] Median CFB [44]: -0.05 mmol/L; [LDL] Mean CFB [45]: 0.16 mmol/L; [LDL] Median CFB [45]: 0.03 mmol/L; [LDL] Mean CFB [46]: 0.10 mmol/L; [LDL] Median CFB [46]: 0.12 mmol/L; [LDL] Mean percentage CFB - 24 weeks results (placebo switching to 100 mg q.d. at week 12, week 16): 2.82%; [LDL] Mean percentage CFB - 24 weeks results [47]: 5.77%; [LDL] Median percentage CFB - 24 weeks results [47]: 1.00%; [LDL] Mean percentage CFB - 24 weeks results [48]: 4.50%; [LDL] Median percentage CFB - 24 weeks results [48]: 4.13%
